The source of these data is patent US20040259875A1, “Amine derivatives” (priority 2001, published 2004).

The structures appear in SMILES notation.

For one data set, the target named is T1, human VR1 (Homo sapiens, UniProt Q8NER1).
T1 construct: expressed in transfected cells
The experiment in a line: Capsaicin-induced Ca2+ influx in the human VR1-transfected CHO cell line (Assay 1). The data set is classed as cell-based. The settings on record: capsaicin-induced Ca2+ flux; compounds or the salt thereof (e.g., potassium salt); purity about 40 to 90%. The text has this: [Measurement of Capsaicin-induced Ca^2+ Influx in the Human VR1-transfected CHO Cell Line] (Assay 1)
(1) Establishment of the human VR1-CHOluc9aeq cell line
Human vanilloid receptor (hVR1) cDNA was cloned from libraries of axotomized dorsal root ganglia (WO2000/29577). The cloned hVR1 cDNA was constructed with pcDNA3 vector and transfected into a CHOluc9aeq cell line. The cell line contains aequorin and CRE-luciferase reporter genes as read-out signals. The transfectants were cloned by limiting dilution in selection medium (DMEM/F12 medium (Gibco BRL) supplemented with 10% FCS, 1.4 mM Sodium pyruvate, 20 mM HEPES, 0.15% Sodium bicarbonate, 100 U/ml penicillin, 100 μ/ml streptomycin, 2 mM glutamine, non-essential amino acids and 2 mg/ml G418). Ca^2+ influx was examined in the capsaicin-stimulated clones. […] The human VR1-CHOluc9aeq cells were maintained in the selection medium and passaged every 3-4 days at 1-2.5×10^5 cells/flask ([…])
(2) Measurement of Ca^2+ influx using FDSS-3000
Human VR1-CHOluc9aeq cells were suspended in a culture medium which is the same as the selection medium except for G418 and seeded at a density of 1,000 cells per well into 384-well plates (black walled clear-base/Nalge Nunc International). Following the culture for 48 hrs the medium was changed to 2 μM Fluo-3 AM (Molecular Probes) and 0.02% Puronic F-127 in assay buffer (Hank's balanced salt solution (HBSS), 17 mM HEPES (pH7.4), 1 mM Probenecid, 0.1% BSA) and the cells were incubated for 60 min at 25° C. After washing twice with assay buffer the cells were incubated with a test compound or vehicle for 20 min at 25° C. Mobilization of cytoplasmic Ca^2+ was measured by FDSS-3000 (λex=488 nm, λem=540 nm/Hamamatsu Photonics) for 60 sec after the stimulation with 10 nM of capsaicin (Nacalai Tesque). Integral R of the fluorescence changes was calculated in the samples treated with a test compound and vehicle respectively. Inhibitory effect of the compound was calculated by a comparison of the integral R values.
On the technique in general: Calcium assays in cells follow changes in intracellular calcium, usually with a dye or a luminescent sensor.

T1 sequence (Q8NER1 whole entry): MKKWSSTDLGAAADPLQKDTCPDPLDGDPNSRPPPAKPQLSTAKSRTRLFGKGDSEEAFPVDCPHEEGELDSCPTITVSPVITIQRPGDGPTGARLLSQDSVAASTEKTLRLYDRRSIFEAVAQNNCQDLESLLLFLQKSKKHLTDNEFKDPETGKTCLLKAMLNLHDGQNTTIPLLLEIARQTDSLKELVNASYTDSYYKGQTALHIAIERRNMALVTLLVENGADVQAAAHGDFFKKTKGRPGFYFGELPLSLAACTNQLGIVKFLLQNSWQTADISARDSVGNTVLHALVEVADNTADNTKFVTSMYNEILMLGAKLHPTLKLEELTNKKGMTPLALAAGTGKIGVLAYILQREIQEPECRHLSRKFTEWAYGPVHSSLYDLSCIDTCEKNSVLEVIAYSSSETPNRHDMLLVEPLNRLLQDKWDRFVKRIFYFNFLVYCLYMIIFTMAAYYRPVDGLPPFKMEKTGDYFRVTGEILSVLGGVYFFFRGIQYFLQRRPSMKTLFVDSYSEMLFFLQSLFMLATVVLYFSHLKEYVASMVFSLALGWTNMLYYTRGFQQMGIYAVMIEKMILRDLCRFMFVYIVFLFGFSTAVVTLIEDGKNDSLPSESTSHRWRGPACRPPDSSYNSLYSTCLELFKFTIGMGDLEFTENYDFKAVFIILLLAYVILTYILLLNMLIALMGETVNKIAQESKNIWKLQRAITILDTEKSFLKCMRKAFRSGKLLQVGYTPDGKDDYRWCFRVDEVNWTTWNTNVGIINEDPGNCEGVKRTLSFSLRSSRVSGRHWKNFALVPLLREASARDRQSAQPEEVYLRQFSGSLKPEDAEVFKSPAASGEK

Usually IC50 stands for the point on the concentration scale where inhibition reaches its midpoint. Regarding `O=C(NCc1ccc(Br)cc1)Nc1c(Cl)ccc2ccc(O)cc12` [N-(4-bromobenzyl)-N′-(2-chloro-7-hydroxy-1-naphthyl)urea], the IC50 at human VR1 is no more than 10 nM.

In the case of `O=C(Nc1cccc(C(F)(F)F)c1)Nc1c(Cl)cc(Cl)c2ccc(O)cc12` [N-(2,4-dichloro-7-hydroxy-1-naphthyl)-N′-[3-(trifluoromethyl)phenyl]urea], the IC50 on human VR1 is no more than 10 nM.

Turning to `O=C(Nc1ccc(Cl)c(C(F)(F)F)c1)Nc1c(Cl)cc(Cl)c2ccc(O)cc12` [N-[4-chloro-3-(trifluoromethyl)phenyl]-N′-(2,4-dichloro-7-hydroxy-1-naphthyl)urea], the IC50 on human VR1 was no more than 10 nM.

Turning to `O=C(Nc1ccc(Cl)c(C(F)(F)F)c1)Nc1c(Cl)ccc2ccc(O)cc12` [N-(2-chloro-7-hydroxy-1-naphthyl)-N′-[4-chloro-3-(trifluoromethyl)phenyl]urea], on human VR1, the IC50 was no more than 10 nM.

`O=C(Nc1ccc(C(F)(F)F)cc1)Nc1cccc2ccc(O)cc12` [N-(7-hydroxy-1-naphthyl)-N′-[4-(trifluoromethyl)phenyl]urea]: the IC50 on human VR1 is no more than 10 nM.

As to `Cc1ccc(NC(=O)Nc2ccc(Cl)c(C(F)(F)F)c2)c2cc(O)ccc12` [N-[4-chloro-3-(trifluoromethyl)phenyl]-N′-(7-hydroxy-4-methyl-1-naphthyl)urea], on human VR1, the IC50 was no more than 10 nM.

Regarding `Cc1cc(Cl)c(NC(=O)Nc2ccc(Cl)c(C(F)(F)F)c2)c2cc(O)ccc12` [N-(2-chloro-7-hydroxy-4-methyl-1-naphthyl)-N′-[4-chloro-3-(trifluoromethyl)phenyl]urea], the IC50 on human VR1 is no more than 10 nM.

`O=C(Nc1cccc(Oc2ccccc2)c1)Nc1cccc2ccc(O)cc12` [N-(7-hydroxy-1-naphthyl)-N′-(3-phenoxyphenyl)urea]: at human VR1, the IC50 is no more than 10 nM.

Consider `O=C(Nc1cccc(-c2ccccc2Cl)c1)Nc1c(Cl)cc(Cl)c2ccc(O)cc12` [N-(2′-chloro-1,1′-biphenyl-3-yl)-N′-(2,4-dichloro-7-hydroxy-1-naphthyl)urea], for which the IC50 at human VR1 was no more than 10 nM.

Turning to `O=C(Nc1cccc(Cl)c1)Nc1c(Br)cc(Br)c2ccc(O)cc12` [N-(3-chlorophenyl)-N′-(2,4-dibromo-7-hydroxy-1-naphthyl)urea], on human VR1, the IC50 is no more than 10 nM.

In the case of `CCOC(=O)c1cccc(NC(=O)Nc2c(Cl)cc(Cl)c3ccc(O)cc23)c1` [ethyl 3-({[(2,4-dichloro-7-hydroxy-1-naphthyl)amino]carbonyl}amino)benzoate], the IC50 on human VR1 is no more than 10 nM.

For the compound `O=C(Nc1ccc(Cl)c(C(F)(F)F)c1)Nc1c(Br)cc(Br)c2ccc(O)cc12` [N-[4-chloro-3-(trifluoromethyl)phenyl]-N′-(2,4-dibromo-7-hydroxy-1-naphthyl)urea], the IC50 on human VR1 was no more than 10 nM.

Turning to `O=C(Nc1ccc2ccccc2c1)Nc1c(Cl)cc(Cl)c2ccc(O)cc12` [N-(2,4-dichloro-7-hydroxy-1-naphthyl)-N′-(2-naphthyl)urea], the IC50 at human VR1 is no more than 10 nM.

Usually melting point stands for the temperature, or range, at which the solid turns liquid. For the compound `CC1COC(c2cccc(NC(=O)Nc3c(Cl)ccc4ccc(O)cc34)c2)=N1` (stereo not shown) [Example 5-2], the melting point was 162 °C (dec.).

Take `O=C(NCc1cccc(F)c1)Nc1c(Br)cc(Br)c2ccc(O)cc12` [Example 1-33]: the melting point lay in the range of 215 to 218 °C.

Turning to `CC(=O)Oc1ccc2c(Cl)cc(Cl)c(NC(=O)Nc3ccc(N4CCOCC4)c(Cl)c3)c2c1` [Example 3-13], the melting point was determined as 206 °C.

With `CC(=O)Oc1ccc2c(Cl)cc(Cl)c(NC(=O)Nc3ccc(F)c(F)c3)c2c1` [Example 3-14], the melting point is 226 °C (dec.).

For the compound `O=C(Nc1cccc(Cl)c1)Nc1c(Cl)ccc2ccc(O)cc12` [Example 1-2], the melting point lay within 242 to 243 °C.

In turn, `O=C(Nc1ccc2c(c1)C(=O)c1ccccc1-2)Nc1c(Cl)cc(Cl)c2ccc([O-])cc12.[K+]` displayed a melting point of 200 °C.

`O=C(Nc1cccc(Oc2ccccc2)c1)Nc1c(Cl)cc(Cl)c2ccc(O)cc12` [Example 4-15]: the melting point was 226 °C (dec.).

For the compound `Cc1cc(NC(=O)Nc2c(Cl)cc(Cl)c3ccc(O)cc23)ccc1Cl` [Example 4-39], the melting point is 240 °C (dec.).

`O=C(Nc1ccc(Cl)c(C(F)(F)F)c1)Nc1cccc2ccc(OC(=O)c3ccccc3)cc12` [Example 1-165] came in with a melting point of 220 to 222 °C.

`O=C(Nc1ccc(Cl)cc1)Nc1c(Cl)cc(Cl)c2ccc(O)cc12` [Example 1-21] came in with a melting point of 253 to 255 °C.

`O=C(NCc1ccc(Br)cc1)Nc1c(Cl)ccc2ccc(O)cc12` [Example 1-6] had a melting point of 226 to 229 °C.

For `O=C(Nc1ccc(F)c(C(F)(F)F)c1)Nc1c(Cl)cc(Cl)c2ccc(O)cc12` [N-(2,4-dichloro-7-hydroxy-1-naphthyl)-N′-[4-fluoro-3-(trifluoromethyl)phenyl]urea], the IC50 at human VR1 was no more than 10 nM.

As for `O=C(Nc1ccc(Oc2ccccc2)cc1)Nc1cccc2ccc(O)cc12` [N-(7-hydroxy-1-naphthyl)-N′-(4-phenoxyphenyl)urea], the IC50 at human VR1 was no more than 10 nM.

For `COc1ccc(NC(=O)Nc2c(Cl)cc(Cl)c3ccc(O)cc23)cc1F` [Example 4-41], the melting point was 235 to 238 °C (dec.).

Turning to `O=C(Nc1ccc(Cl)c(C(F)(F)F)c1)Nc1c(Cl)cc(Br)c2ccc(O)cc12` [N-(4bromo-2-chloro-7-hydroxy-1-naphthyl)N′-[4-chloro-3-(trifluoromethyl)phenyl]urea], at human VR1, the IC50 was no more than 10 nM.

For `O=C(Nc1cccc(-c2ccccc2)c1)Nc1c(Cl)ccc2ccc(O)cc12` [N-(1,1′-biphenyl-3-yl)-N′-(2-chloro-7-hydroxy-1-naphthyl)urea], the IC50 at human VR1 was no more than 10 nM.

`O=C(Nc1ccc(F)cc1Cl)Nc1c(Cl)cc(Cl)c2ccc(O)cc12` [Example 4-16]: the melting point is 298 °C (dec.).

`O=C(Nc1ccc2c(c1)CCC2)Nc1c(Cl)cc(Cl)c2ccc(O)cc12` [Example 4-32]: the melting point is greater than 300 °C.

On to `O=C(Nc1cccc(F)c1)Nc1c(Cl)cc(Cl)c2ccc(O)cc12` [Example 1-40], for which the melting point is greater than 300 °C.

`O=C(Nc1cccc(Cl)c1)Nc1cccc2ccc(OC(=O)c3ccccc3)cc12` [Example 1-166] had a melting point of 214 to 215 °C.

The compound `CN(C(=O)NCc1ccc(Br)cc1)c1cccc2ccc(O)cc12` [Example 1-78] displayed a melting point of 194 °C.

Consider `O=C(Nc1cccc2c1C(=O)c1ccccc1-2)Nc1c(Cl)cc(Cl)c2ccc(O)cc12` [Example 4-37], for which the melting point is greater than 250 °C.

`O=C(Nc1ccc(F)c(F)c1)Nc1c(Cl)cc(Cl)c2ccc(O)cc12` [Example 4-38]: the melting point was 244 °C (dec.).

Consider `Cc1cc(NC(=O)Nc2c(Cl)cc(Cl)c3ccc(O)cc23)ccc1F` [Example 4-45], for which the melting point is 250 to 252 °C (dec.).

As to `O=C(Nc1cccc(-c2ccccc2)c1)Nc1cccc2ccc(O)cc12` [N-(1,1′-biphenyl-3-yl)-N′-(7-hydroxy-1-naphthyl)urea], the IC50 on human VR1 is no more than 10 nM.

Regarding `O=C(Nc1ccc2c(c1)CCCC2=O)Nc1c(Cl)cc(Cl)c2ccc(O)cc12` [Example 4-40], the melting point is 230 °C (dec.).

Compound `Cc1cc(NC(=O)Nc2c(Cl)cc(Cl)c3ccc([O-])cc23)ccc1Cl.[K+]` yielded a melting point of 190 °C.

For `O=C(Nc1ccc(C(F)(F)F)cc1)Nc1c(Cl)cc(Cl)c2ccc([O-])cc12.[K+]`, the melting point was 179 °C (dec.).

For the compound `O=C(Nc1ccc(Oc2ccc(Cl)cc2)cc1)Nc1cccc2ccc(O)cc12` [N-[4-(4-chlorophenoxy)phenyl]-N′-(7-hydroxy-1-naphthyl)urea], at human VR1, the IC50 is no more than 10 nM.

As to `CC(=O)Oc1ccc2c(Cl)cc(Cl)c(NC(=O)Nc3cnc4ccccc4c3)c2c1` [Example 3-16], the melting point is 205 °C (dec.).

`CNc1ccc2cccc(NC(=O)Nc3ccc(Cl)c(C(F)(F)F)c3)c2c1` [Example 1-74] came in with a melting point of 218 to 219 °C.

Consider `O=C(NCc1ccc(Br)cc1)Nc1cccc2ccc([O-])c(F)c12.[K+]`, for which the melting point worked out at 185 °C.

As for `O=C(Nc1cccc(C(F)(F)F)c1)Nc1c(Br)cc(Br)c2ccc(O)cc12` [Example 1-27], the melting point lay in the range of 233 to 236 °C.
